Experimental data taken from ChEMBL document CHEMBL4017476, “Synthesis of novel 5,6-dehydrokawain analogs as osteogenic inducers and their action mechanisms” (Bioorg Med Chem Lett, 2017).
The source made the active and inactive calls. The calls are words filed in the database; no cut-off is given here.

Tested on: MC3T3-E1
Assay: Osteogenic activity in mouse MC3T3-E1 cells assessed as increase in mineralization at 0.1 to 60 uM measured after 10 days by alizarin red S staining based assay
Format: functional, cell-based
Conditions: not given

Question: Which Activity does the source give for CCOc1cc(/C=C/c2ccccc2)oc(=O)c1 here?
Answer: The Activity was “inactive”.

Question: COc1cc(/C=C/c2ccccc2)oc(=O)c1C was tested. Which Activity did it give?
Answer: Its Activity is “inactive”.

Question: With CCCOc1cc(/C=C/c2ccccc2)oc(=O)c1 as the molecule, how does the Activity read?
Answer: The Activity was “inactive”.

Question: With COc1cc(/C=C/c2ccccc2)oc(=O)c1 [DESMETHOXYYANGONIN] as the molecule, how does the Activity read?
Answer: Its Activity is “Active”.

Tested on: MC3T3-E1
Assay: Osteogenic activity in mouse MC3T3-E1 cells assessed as increase in mineralization at 30 uM measured after 10 days by alizarin red S staining based assay
Format: functional, cell-based
Conditions: not given

Question: For CCOc1cc(/C=C/c2ccccc2)oc(=O)c1, which Activity is on record?
Answer: The Activity was “inactive”.

Question: COc1cc(/C=C/c2ccccc2)oc(=O)c1C was tested. Which Activity did it give?
Answer: Its Activity is “inactive”.

Question: COc1cc(/C=C/c2ccc(F)cc2)oc(=O)c1 was tested. Which Activity did it give?
Answer: Its Activity is “inactive”.

Question: COc1cc(/C=C/C2CCCC2)oc(=O)c1 was tested. Which Activity did it give?
Answer: Its Activity is “inactive”.

Question: Which Activity does the source give for CCCOc1cc(/C=C/c2ccccc2)oc(=O)c1 here?
Answer: The Activity was “inactive”.

Question: For COc1cc(/C=C/C2CC2)oc(=O)c1, which Activity is on record?
Answer: The Activity was “inactive”.

Question: For C#Cc1ccc(/C=C/c2cc(OC)cc(=O)o2)cc1, which Activity is on record?
Answer: The Activity was “Active”.

Question: COc1cc(/C=C/c2ccc(Cl)cc2)oc(=O)c1 was tested. Which Activity did it give?
Answer: The Activity was “Active”.

Question: How did the Activity turn out when COc1cc(/C=C/C2CCCCC2)oc(=O)c1 was run?
Answer: Its Activity is “Active”.

Question: With COc1cc(/C=C/c2ccc(C)cc2)oc(=O)c1 as the molecule, how does the Activity read?
Answer: The Activity was “Active”.

Question: COc1cc(/C=C/c2ccc(C(F)(F)F)cc2)oc(=O)c1 was tested. Which Activity did it give?
Answer: The Activity was “Active”.

Tested on: MC3T3-E1
Assay: Osteogenic activity in mouse MC3T3-E1 cells assessed as increase in mineralization at 60 uM measured after 10 days by alizarin red S staining based assay
Format: functional, cell-based
Conditions: not given

Question: With COc1cc(/C=C/c2ccccc2)oc(=O)c1 [DESMETHOXYYANGONIN] as the molecule, how does the Activity read?
Answer: Its Activity is “Active”.

Tested on: MC3T3-E1
Assay: Osteogenic activity in mouse MC3T3-E1 cells assessed as increase in ALP activity at 60 uM measured after 4 days relative to control
Format: functional
Conditions: not given

Question: With COc1cc(/C=C/c2ccccc2)oc(=O)c1 [DESMETHOXYYANGONIN] as the molecule, how does the “fold change (FC)” value read?
Answer: Its value is 1.25.

Tested on: MC3T3-E1
Assay: Cytotoxicity against mouse MC3T3-E1 cells assessed as cell number at 30 uM measured after 4 days by WST-8 assay relative to control
Format: cell-based
Conditions: mc3t3-e1, 96 h

Question: CCOc1cc(/C=C/c2ccccc2)oc(=O)c1 was tested. Which fold change (FC) did it give?
Answer: Its fold change (FC) is 0.85 to 1.25.

Question: How did the fold change (FC) turn out when COc1cc(/C=C/c2ccccc2)oc(=O)c1C was run?
Answer: The fold change (FC) was 0.85 to 1.25.

Question: With COc1cc(/C=C/c2ccc(F)cc2)oc(=O)c1 as the molecule, how does the fold change (FC) read?
Answer: The fold change (FC) was 0.85 to 1.25.

Question: With COc1cc(/C=C/C2CCCC2)oc(=O)c1 as the molecule, how does the fold change (FC) read?
Answer: The fold change (FC) was 0.85 to 1.25.

Question: With COc1cc(/C=C/c2ccccc2)oc(=O)c1 [DESMETHOXYYANGONIN] as the molecule, how does the fold change (FC) read?
Answer: The fold change (FC) was 0.85 to 1.25.

Question: For COc1cc(/C=C/C2CC2)oc(=O)c1, which fold change (FC) is on record?
Answer: Its fold change (FC) is 0.85 to 1.25.

Question: Which fold change (FC) does the source give for C#Cc1ccc(/C=C/c2cc(OC)cc(=O)o2)cc1 here?
Answer: The fold change (FC) was 0.85 to 1.25.

Question: Which fold change (FC) does the source give for COc1cc(/C=C/c2ccc(Cl)cc2)oc(=O)c1 here?
Answer: Its fold change (FC) is 0.85 to 1.25.

Question: With COc1cc(/C=C/C2CCCCC2)oc(=O)c1 as the molecule, how does the fold change (FC) read?
Answer: Its fold change (FC) is 0.85 to 1.25.

Question: With COc1cc(/C=C/c2ccc(C)cc2)oc(=O)c1 as the molecule, how does the fold change (FC) read?
Answer: Its fold change (FC) is 0.85 to 1.25.

Question: With COc1cc(/C=C/c2ccc(C(F)(F)F)cc2)oc(=O)c1 as the molecule, how does the fold change (FC) read?
Answer: The fold change (FC) was 0.85 to 1.25.

Tested on: RAW264
Assay: Inhibition of RANKL-stimulated osteoclastogenesis in mouse RAW264 cells assessed as reduction in TRAP activity at 20 uM measured after 72 hrs by microscopic analysis
Format: functional, cell-based
Conditions: not given

Question: COc1cc(/C=C/c2ccccc2)oc(=O)c1 [DESMETHOXYYANGONIN] was tested. Which inhibition did it give?
Answer: The inhibition was “inactive”.

Tested on: MC3T3-E1
Assay: Osteogenic activity in mouse MC3T3-E1 cells assessed as increase in ALP activity at 30 uM measured after 4 days relative to control
Format: functional
Conditions: not given

Question: How did the Activity turn out when COc1cc(/C=C/c2ccc(F)cc2)oc(=O)c1 was run?
Answer: The Activity was “inactive”.

Question: Which Activity does the source give for COc1cc(/C=C/C2CCCC2)oc(=O)c1 here?
Answer: The Activity was “inactive”.

Question: Which Activity does the source give for COc1cc(/C=C/C2CC2)oc(=O)c1 here?
Answer: Its Activity is “inactive”.

Question: C#Cc1ccc(/C=C/c2cc(OC)cc(=O)o2)cc1 was tested. Which “fold change (FC)” value did it give?
Answer: The value was 1.32 - 2.87.

Question: COc1cc(/C=C/c2ccc(Cl)cc2)oc(=O)c1 was tested. Which “fold change (FC)” value did it give?
Answer: The value was 1.32 - 2.87.

Question: How did the “fold change (FC)” value turn out when COc1cc(/C=C/C2CCCCC2)oc(=O)c1 was run?
Answer: Its value is 1.32 - 2.87.

Question: Which Activity does the source give for COc1cc(/C=C/c2ccc(C)cc2)oc(=O)c1 here?
Answer: The Activity was “Active”.

Question: With COc1cc(/C=C/c2ccc(C(F)(F)F)cc2)oc(=O)c1 as the molecule, how does the “fold change (FC)” value read?
Answer: The value was 1.32 - 2.87.

Tested on: MC3T3-E1
Assay: Cytotoxicity against mouse MC3T3-E1 cells assessed as cell number at 60 uM measured after 4 days by WST-8 assay relative to control
Format: cell-based
Conditions: mc3t3-e1, 96 h

Question: With COc1cc(/C=C/c2ccccc2)oc(=O)c1 [DESMETHOXYYANGONIN] as the molecule, how does the fold change (FC) read?
Answer: The fold change (FC) was 0.85 to 1.25.
